In US20110166121A1 (LG LIFE SCIENCES LTD., priority 2008, published 2011):

Key:
[1] = test system: Human platelet aggregation caused by ADP; experiment: Inhibition of ADP-induced platelet aggregation (Mimic-human PRP); format: cell-based; settings: 20 μM ADP, human platelet concentrate diluted with PPP, absorption at 595 nm
Summary of the method: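 Ki came from non-linear sigmoidal fits of inhibition, measured as the 3-min rise in absorbance at 595 nm after 20 μM ADP, relative to 0/20 μM ADP controls. Platelets (3–4×10^8/mL in PPP-diluted human PRP) were exposed to 0.01–30 μM compound for 20 min at room temperature beforehand.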

[2] = target: T1, Human P2Y12 receptor (Homo sapiens, UniProt Q9H244); experiment: Human P2Y12 receptor cell membrane binding assay with [3H] 2-Mes-ADP; settings: 1 nM [3H] 2-Mes-ADP, membranes of HEK cells expressing P2Y12 receptor; read-out: Binding activity (IC50)
T1 construct: expressed in transfected cells; host or cells: HEK cells
Summary of the method: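 Competition binding used 1 nM [3H]2-MeS-ADP on P2Y12-expressing HEK cell membranes for 1 h at room temperature, followed by filtration and scintillation counting.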

T1 sequence (Q9H244 whole entry): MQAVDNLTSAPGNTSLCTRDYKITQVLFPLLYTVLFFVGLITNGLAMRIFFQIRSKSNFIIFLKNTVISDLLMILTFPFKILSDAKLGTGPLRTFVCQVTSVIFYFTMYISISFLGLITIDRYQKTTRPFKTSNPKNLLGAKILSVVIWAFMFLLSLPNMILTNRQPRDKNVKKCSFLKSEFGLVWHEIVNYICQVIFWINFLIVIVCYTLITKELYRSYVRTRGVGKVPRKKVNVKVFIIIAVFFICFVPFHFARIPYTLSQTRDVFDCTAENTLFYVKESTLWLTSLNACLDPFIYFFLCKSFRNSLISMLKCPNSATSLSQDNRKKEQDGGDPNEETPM

Row | Structure (SMILES) | Ki [1] [nM] | IC50 [2] [nM]
1 | CCCc1cc2c(N3CCn4c(nnc4C(F)(F)F)C3)nc(N3CCOCC3)nc2s1 [Example 1-15, 7-(2-Morpholin-4-yl-6-propyl-thieno[2,3-d]pyrimidin-4-yl)-3-trifluoromethyl-5,6,7,8-tetrahydro-[1,2,4]triazolo[4,3-a]pyrazine] | 95 | 62
2 | CCCc1cc2c(N3CCn4c(nnc4C(F)(F)F)C3)nc(N3CC[C@H](O)C3)nc2s1 [Example 1-16, (S)-1-[6-Propyl-4-(3-trifluoromethyl-5,6-dihydro-8H-[1,2,4]triazolo[4,3-a]pyrazin-7-yl)-thieno[2,3-d]pyrimidin-2-yl]-pyrrolidin-3-ol] | 45 | 36
3 | CCCc1cc2c(N3CCn4c(nnc4C(F)(F)F)C3)nc(N3CC[C@@H](O)C3)nc2s1 [Example 1-17, (R)-1-[6-Propyl-4-(3-trifluoromethyl-5,6-dihydro-8H-[1,2,4]triazolo[4,3-a]pyrazin-7-yl)-thieno[2,3-d]pyrimidin-2-yl]-pyrrolidin-3-ol] | 80 | 41
4 | CCCc1cc2c(N3CCn4c(nnc4C(F)(F)F)C3)nc(N3CCC(=O)C3)nc2s1 [Example 1-18, 1-[6-Propyl-4-(3-trifluoromethyl-5,6-dihydro-8H-[1,2,4]triazolo[4,3-a]pyrazin-7-yl)-thieno[2,3-d]pyrimidin-2-yl]-pyrrolidin-3-one] | 34 | 54
5 | CCCc1cc2c(N3CCn4c(nnc4C(F)(F)F)C3)nc(N3CCC(=NO)C3)nc2s1 [Example 1-19, 1-[6-Propyl-4-(3-trifluoromethyl-5,6-dihydro-8H-[1,2,4]triazolo[4,3-a]pyrazin-7-yl)-thieno[2,3-d]pyrimidin-2-yl]-pyrrolidin-3-one oxime] | 56 | 55
6 | CCCc1cc2c(N3CCn4c(nnc4C(F)(F)F)C3)nc(N3CCC(=NOC)C3)nc2s1 [Example 1-20, 1-[6-Propyl-4-(3-trifluoromethyl-5,6-dihydro-8H-[1,2,4]triazolo[4,3-a]pyrazin-7-yl)-thieno[2,3-d]pyrimidin-2-yl]-pyrrolidin-3-one O-methyloxime] | 190 | 163
7 | CCCc1cc2c(N3CCn4c(nnc4C(F)(F)F)C3)nc(N3CCC(=NOCc4ccccc4)C3)nc2s1 [Example 1-21, 1-[6-Propyl-4-(3-trifluoromethyl-5,6-dihydro-8H-[1,2,4]triazolo[4,3-a]pyrazin-7-yl)-thieno[2,3-d]pyrimidin-2-yl]-pyrrolidin-3-one O-benzyloxime] | 220 | 452
8 | CCCc1cc2c(N3CCn4c(nnc4C(F)(F)F)C3)nc(N3CC[C@H](OC(C)=O)C3)nc2s1 [Example 1-22, Acetic Acid (S)-1-[6-propyl-4-(3-trifluoromethyl-5,6-dihydro-8H-[1,2,4]triazolo[4,3-a]pyrazin-7-yl)-thieno[2,3-d]pyrimidin-2-yl]-pyrrolidin-3-yl ester] | 130 | 65
9 | CCCc1cc2c(N3CCn4c(nnc4C(F)(F)F)C3)nc(N3CC[C@@H](OC(C)=O)C3)nc2s1 [Example 1-23, Acetic Acid (R)-1-[6-propyl-4-(3-trifluoromethyl-5,6-dihydro-8H-[1,2,4]triazolo[4,3-a]pyrazin-7-yl)-thieno[2,3-d]pyrimidin-2-yl]-pyrrolidin-3-yl ester] | 94 | 90
10 | CCCc1cc2c(N3CCn4c(nnc4C(F)(F)F)C3)nc(N3CCC(OC)C3)nc2s1 (stereo not shown) [Example 1-24, 7-[2-(3-Methoxy-pyrrolidin-1-yl)-6-propyl-thieno[2,3-d]pyrimidin-4-yl]-3-trifluoromethyl-5,6,7,8-tetrahydro-[1,2,4]triazolo[4,3-a]pyrazine] | 88 | 54
11 | CCCc1cc2c(N3CCn4c(nnc4C(F)(F)F)C3)nc(N3CCN(C)C(=O)C3)nc2s1 [Example 1-25, 1-Methyl-4-[6-propyl-4-(3-trifluoromethyl-5,6-dihydro-8H-[1,2,4]triazolo[4,3-a]pyrazin-7-yl)-thieno[2,3-d]pyrimidin-2-yl]-piperazin-2-one] | 100 | 32
12 | CCCc1cc2c(N3CCn4c(nnc4C(F)(F)F)C3)nc(N3CCC(O)CC3)nc2s1 [Example 1-26, 1-[6-Propyl-4-(3-trifluoromethyl-5,6-dihydro-8H-[1,2,4]triazolo[4,3-a]pyrazin-7-yl)-thieno[2,3-d]pyrimidin-2-yl]-piperidin-4-ol] | 1200 | 60
13 | CCCc1cc2c(N3CCn4c(nnc4C(F)(F)F)C3)nc(N3CCCC(O)C3)nc2s1 (stereo not shown) [Example 1-27, 1-[6-Propyl-4-(3-trifluoromethyl-5,6-dihydro-8H-[1,2,4]triazolo[4,3-a]pyrazin-7-yl)-thieno[2,3-d]pyrimidin-2-yl]-piperidin-3-ol] | 72 | 56
14 | CCCc1cc2c(N3CCn4c(nnc4C(F)(F)F)C3)nc(N3CCCCC3CO)nc2s1 (stereo not shown) [Example 1-28, {1-[6-Propyl-4-(3-trifluoromethyl-5,6-dihydro-8H-[1,2,4]triazolo[4,3-a]pyrazin-7-yl)-thieno[2,3-d]pyrimidin-2-yl]-piperidin-2-yl}-methanol] | 176 | 40
15 | CCCc1cc2c(N3CCn4c(nnc4C(F)(F)F)C3)nc(N3CCCC(CO)C3)nc2s1 (stereo not shown) [Example 1-29, {1-[6-Propyl-4-(3-trifluoromethyl-5,6-dihydro-8H-[1,2,4]triazolo[4,3-a]pyrazin-7-yl)-thieno[2,3-d]pyrimidin-2-yl]-piperidin-3-yl}-methanol] | 60 | 50
16 | CCCc1cc2c(N3CCn4c(nnc4C(F)(F)F)C3)nc(N3CCCC3CO)nc2s1 (stereo not shown) [Example 1-30, {1-[6-Propyl-4-(3-trifluoromethyl-5,6-dihydro-8H-[1,2,4]triazolo[4,3-a]pyrazin-7-yl)-thieno[2,3-d]pyrimidin-2-yl]-pyrrolidin-2-yl}-methanol] | 90 | 66
17 | CCCc1cc2c(N3CCn4c(nnc4C(F)(F)F)C3)nc(NC3CCCC3)nc2s1 [Example 1-31, Cyclopentyl-[6-propyl-4-(3-trifluoromethyl-5,6-dihydro-8H-[1,2,4]triazolo[4,3-a]pyrazin-7-yl)-thieno[2,3-d]pyrimidin-2-yl]-amine] | 7600 | 110
18 | CCCc1cc2c(N3CCn4c(nnc4C(F)(F)F)C3)nc(NCc3ccccc3)nc2s1 [Example 1-32, Benzyl-[6-propyl-4-(3-trifluoromethyl-5,6-dihydro-8H-[1,2,4]triazolo[4,3-a]pyrazin-7-yl)-thieno[2,3-d]pyrimidin-2-yl]-amine] | > 4000 | 95
19 | CCCc1cc2c(N3CCn4c(nnc4C(F)(F)F)C3)nc(N[C@@H]3C[C@H](OCCO)[C@@H](O)[C@H]3O)nc2s1 [Example 1-33, (1S,2S,3S,5R)-3-(2-Hydroxy-ethoxy)-5-[6-propyl-4-(3-trifluoromethyl-5,6-dihydro-8H-[1,2,4]triazolo[4,3-a]pyrazin-7-yl)-thieno[2,3-d]pyrimidin-2-ylamino]-cyclopentane-1,2-diol] | 250 | 780
20 | CCCc1cc2c(N3CCn4c(nnc4C(F)(F)F)C3)nc(N(CCO)CCO)nc2s1 [Example 1-34, 2-{(2-Hydroxy-ethyl)-[6-propyl-4-(3-trifluoromethyl-5,6-dihydro-8H-[1,2,4]triazolo[4,3-a]pyrazin-7-yl)-thieno[2,3-d]pyrimidin-2-yl]-amino}-ethanol] | 81 | 143
21 | CCCc1cc2c(N3CCn4c(nnc4C(F)(F)F)C3)nc(N3CCOC(=O)C3)nc2s1 [Example 1-35, 4-[6-Propyl-4-(3-trifluoromethyl-5,6-dihydro-8H-[1,2,4]triazolo[4,3-a]pyrazin-7-yl)-thieno[2,3-d]pyrimidin-2-yl]-morpholin-2-one] | 54 | 135
22 | CCCc1cc2c(N3CCn4c(nnc4C(F)(F)F)C3)nc(Nc3ccccc3)nc2s1 [Example 1-36, Phenyl-[6-propyl-4-(3-trifluoromethyl-5,6-dihydro-8H-[1,2,4]triazolo[4,3-a]pyrazin-7-yl)-thieno[2,3-d]pyrimidin-2-yl]-amine] | 1200 | 170
23 | CCCc1cc2c(N3CCn4c(nnc4C(F)(F)F)C3)nc(Nc3ncccn3)nc2s1 [Example 1-37, [6-Propyl-4-(3-trifluoromethyl-5,6-dihydro-8H-[1,2,4]triazolo[4,3-a]pyrazin-7-yl)-thieno[2,3-d]pyrimidin-2-yl]-pyrimidin-2-yl-amine] | 850 | 550
24 | CCCc1cc2c(N3CCn4c(nnc4C(F)(F)F)C3)nc(N3CCN(c4ccc(O)cc4)CC3)nc2s1 [Example 1-38, 4-{4-[6-Propyl-4-(3-trifluoromethyl-5,6-dihydro-8H-[1,2,4]triazolo[4,3-a]pyrazin-7-yl)-thieno[2,3-d]pyrimidin-2-yl]-piperazin-1-yl}-phenol] | 180 | 100
25 | CCCc1cc2c(N3CCn4c(nnc4C(F)(F)F)C3)nc(N3CCN(c4cccc(O)c4)CC3)nc2s1 [Example 1-39, 3-{4-[6-Propyl-4-(3-trifluoromethyl-5,6-dihydro-8H-[1,2,4]triazolo[4,3-a]pyrazin-7-yl)-thieno[2,3-d]pyrimidin-2-yl]-piperazin-1-yl}-phenol] | 550 | 140
26 | CCCc1cc2c(N3CCn4c(nnc4C(F)(F)F)C3)nc(N3CCN(C4CCCC4)CC3)nc2s1 [Example 1-40, 7-[2-(4-Cyclopentyl-piperazin-1-yl)-6-propyl-thieno[2,3-d]pyrimidin-4-yl]-3-trifluoromethyl-5,6,7,8-tetrahydro-[1,2,4]triazolo[4,3-a]pyrazine] | 175 | 200
